Experimental data from patent US20100041089A1, “IMPROVED METHOD FOR DETECTING CHEMICAL […]” (priority 2006, published 2010).

Tested on: yeast genes (expressed mRNA)
Assay: DNA chip measurement of expressed mRNA of yeast genes after culture with a toxic chemical substance
Assay type: cell-based, Saccharomyces cerevisiae S288C
Summary of the method: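 Fluorescence ratio, treated over untreated, read by chip scanner; ratio of two or more counted significant. Cells: S288C yeast, YPD, 25° C, chemical added at log phase for 2 h at growth-inhibiting, sublethal level. Cy3/Cy5-labeled cDNA from oligo-dT-purified mRNA.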

In the case of `CN(C)C(=S)SSC(=S)N(C)C` [(10), Tetramethylthiuram disulfide], the “The level of expressed mRNA in the presence of chemical substance/The level of expressed mRNA in the absence of chemical substance” value (yeast gene YJL152W, cultured two hours with substance) was 1.0, the “The level of expressed mRNA in the presence of chemical substance/The level of expressed mRNA in the absence of chemical substance” value (yeast gene YJL161W, cultured two hours with substance) was 2.1 and the “The level of expressed mRNA in the presence of chemical substance/The level of expressed mRNA in the absence of chemical substance” value (yeast gene YJL171C, cultured two hours with substance) was 1.7. For the same molecule, the “The level of expressed mRNA in the presence of chemical substance/The level of expressed mRNA in the absence of chemical substance” value (yeast gene YJL186W, cultured two hours with substance) was 0.5, the “The level of expressed mRNA in the presence of chemical substance/The level of expressed mRNA in the absence of chemical substance” value (yeast gene YJR008W, cultured two hours with substance) was 1.9 and the “The level of expressed mRNA in the presence of chemical substance/The level of expressed mRNA in the absence of chemical substance” value (yeast gene YJR010W) was 11.1. The “The level of expressed mRNA in the presence of chemical substance/The level of expressed mRNA in the absence of chemical substance” value (yeast gene YJR054W, cultured two hours with substance) was 0.6, the “The level of expressed mRNA in the presence of chemical substance/The level of expressed mRNA in the absence of chemical substance” value (yeast gene YJR155W) was 18.8 and the “The level of expressed mRNA in the presence of chemical substance/The level of expressed mRNA in the absence of chemical substance” value (yeast gene YJR155W, cultured for two hours with substance) was 18.8. The “The level of expressed mRNA in the presence of chemical substance/The level of expressed mRNA in the absence of chemical substance” value (yeast gene YKL070W) was 11.0, the “The level of expressed mRNA in the presence of chemical substance/The level of expressed mRNA in the absence of chemical substance” value (yeast gene YKL071W, cultured two hours with substance) was 109.2 and the “The level of expressed mRNA in the presence of chemical substance/The level of expressed mRNA in the absence of chemical substance” value (yeast gene YKL086W, cultured two hours with substance) was 20.5. For the same molecule, the “The level of expressed mRNA in the presence of chemical substance/The level of expressed mRNA in the absence of chemical substance” value (yeast gene YKL151C, cultured two hours with substance) was 3.5, the “The level of expressed mRNA in the presence of chemical substance/The level of expressed mRNA in the absence of chemical substance” value (yeast gene YKL153W, cultured two hours with substance) was 1.4 and the “The level of expressed mRNA in the presence of chemical substance/The level of expressed mRNA in the absence of chemical substance” value (yeast gene YKL195W, cultured two hours with substance) was 2.1. For the same molecule, the “The level of expressed mRNA in the presence of chemical substance/The level of expressed mRNA in the absence of chemical substance” value (yeast gene YKR076W) was 43.1, the “The level of expressed mRNA in the presence of chemical substance/The level of expressed mRNA in the absence of chemical substance” value (yeast gene YKR091W, cultured two hours with substance) was 1.6 and the “The level of expressed mRNA in the presence of chemical substance/The level of expressed mRNA in the absence of chemical substance” value (yeast gene YLL060C (detoxification protein gene)) was 23.2. The “The level of expressed mRNA in the presence of chemical substance/The level of expressed mRNA in the absence of chemical substance” value (yeast gene YLL060C (stress protein genes)) was 23.2, the “The level of expressed mRNA in the presence of chemical substance/The level of expressed mRNA in the absence of chemical substance” value (yeast gene YLR054C, cultured two hours with substance) was 1.1 and the “The level of expressed mRNA in the presence of chemical substance/The level of expressed mRNA in the absence of chemical substance” value (yeast gene YLR108C) was 10.4. For the same molecule, the “The level of expressed mRNA in the presence of chemical substance/The level of expressed mRNA in the absence of chemical substance” value (yeast gene YLR149C, cultured two hours with substance) was 5.2, the “The level of expressed mRNA in the presence of chemical substance/The level of expressed mRNA in the absence of chemical substance” value (yeast gene YLR152C, cultured two hours with substance) was 1.1 and the “The level of expressed mRNA in the presence of chemical substance/The level of expressed mRNA in the absence of chemical substance” value (yeast gene YLR194C, cultured two hours with substance) was 1.1. The “The level of expressed mRNA in the presence of chemical substance/The level of expressed mRNA in the absence of chemical substance” value (yeast gene YLR217W, cultured two hours with substance) was 8.2, the “The level of expressed mRNA in the presence of chemical substance/The level of expressed mRNA in the absence of chemical substance” value (yeast gene YLR324W, cultured two hours with substance) was 1.4 and the “The level of expressed mRNA in the presence of chemical substance/The level of expressed mRNA in the absence of chemical substance” value (yeast gene YLR350W, cultured two hours with substance) was 1.4. For the same molecule, the “The level of expressed mRNA in the presence of chemical substance/The level of expressed mRNA in the absence of chemical substance” value (yeast gene YLR387C, cultured two hours with substance) was 3.0, the “The level of expressed mRNA in the presence of chemical substance/The level of expressed mRNA in the absence of chemical substance” value (yeast gene YLR460C, cultured two hours with substance) was 31.6 and the “The level of expressed mRNA in the presence of chemical substance/The level of expressed mRNA in the absence of chemical substance” value (yeast gene YML117W, cultured two hours with substance) was 1.4. The “The level of expressed mRNA in the presence of chemical substance/The level of expressed mRNA in the absence of chemical substance” value (yeast gene YML131W) was 17.7, the “The level of expressed mRNA in the presence of chemical substance/The level of expressed mRNA in the absence of chemical substance” value (yeast gene YMR009W, cultured two hours with substance) was 2.2 and the “The level of expressed mRNA in the presence of chemical substance/The level of expressed mRNA in the absence of chemical substance” value (yeast gene YMR034C, cultured two hours with substance) was 2.7. The “The level of expressed mRNA in the presence of chemical substance/The level of expressed mRNA in the absence of chemical substance” value (yeast gene YMR067C, cultured two hours with substance) was 3.5, the “The level of expressed mRNA in the presence of chemical substance/The level of expressed mRNA in the absence of chemical substance” value (yeast gene YMR090W, cultured two hours with substance) was 6.1 and the “The level of expressed mRNA in the presence of chemical substance/The level of expressed mRNA in the absence of chemical substance” value (yeast gene YMR095C, cultured two hours with substance) was 1.4. The “The level of expressed mRNA in the presence of chemical substance/The level of expressed mRNA in the absence of chemical substance” value (yeast gene YMR097C, cultured two hours with substance) was 2.1, the “The level of expressed mRNA in the presence of chemical substance/The level of expressed mRNA in the absence of chemical substance” value (yeast gene YMR102C, cultured two hours with substance) was 2.6 and the “The level of expressed mRNA in the presence of chemical substance/The level of expressed mRNA in the absence of chemical substance” value (yeast gene YMR107W, cultured two hours with substance) was 17.1. The “The level of expressed mRNA in the presence of chemical substance/The level of expressed mRNA in the absence of chemical substance” value (yeast gene YMR140W, cultured two hours with substance) was 2.3, the “The level of expressed mRNA in the presence of chemical substance/The level of expressed mRNA in the absence of chemical substance” value (yeast gene YMR180C, cultured two hours with substance) was 2.2 and the “The level of expressed mRNA in the presence of chemical substance/The level of expressed mRNA in the absence of chemical substance” value (yeast gene YMR184W, cultured two hours with substance) was 0.9. The “The level of expressed mRNA in the presence of chemical substance/The level of expressed mRNA in the absence of chemical substance” value (yeast gene YMR191W, cultured two hours with substance) was 3.5, the “The level of expressed mRNA in the presence of chemical substance/The level of expressed mRNA in the absence of chemical substance” value (yeast gene YMR251W, cultured two hours with substance) was 11.6 and the “The level of expressed mRNA in the presence of chemical substance/The level of expressed mRNA in the absence of chemical substance” value (yeast gene YMR295C, cultured two hours with substance) was 0.8. The “The level of expressed mRNA in the presence of chemical substance/The level of expressed mRNA in the absence of chemical substance” value (yeast gene YMR316W, cultured two hours with substance) was 3.0, the “The level of expressed mRNA in the presence of chemical substance/The level of expressed mRNA in the absence of chemical substance” value (yeast gene YMR322C, cultured two hours with substance) was 10.3 and the “The level of expressed mRNA in the presence of chemical substance/The level of expressed mRNA in the absence of chemical substance” value (yeast gene YNL044W, cultured two hours with substance) was 0.8. For the same molecule, the “The level of expressed mRNA in the presence of chemical substance/The level of expressed mRNA in the absence of chemical substance” value (yeast gene YNL074C, cultured two hours with substance) was 2.0.
